Test results as given in the supplement of paper PMC10307832.

Columns and labels:
Experiment in all cases: relative viability (nuclei count vs DMSO), 5 days (fraction); higher = more cells survive
IMD-0354 + Luminespib = compound: O=C(Nc1cc(C(F)(F)F)cc(C(F)(F)F)c1)c1cc(Cl)ccc1O [IMD-0354] + CCNC(=O)c1noc(-c2cc(C(C)C)c(O)cc2O)c1-c1ccc(CN2CCOCC2)cc1 [Luminespib] (partner 0.01 µM)
Summary of the method: (§1)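 Lung cancer cell lines in 1536-well plates were dosed by pin tool the day after seeding, either with one drug alone or with a fixed anchor-drug dose plus five library-drug doses (not always all listed) in √10 steps. After 5 days, cells were fixed and their nuclei stained in one step (final 0.05% Triton X-100, 1% formaldehyde, 1 ug/ml Hoechst), then counted on 4× images. Relative viability is the nuclei count in treated wells divided by that in vehicle wells. Values are medians of duplicate plates.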

IMD-0354 + Tozasertib = compound: O=C(Nc1cc(C(F)(F)F)cc(C(F)(F)F)c1)c1cc(Cl)ccc1O [IMD-0354] + Cc1cc(Nc2cc(N3CCN(C)CC3)nc(Sc3ccc(NC(=O)C4CC4)cc3)n2)n[nH]1 [Tozasertib] (partner 0.1 µM)
Summary of the method: as §1

CX-5461 + Vorinostat = compound: Cc1cnc(CNC(=O)c2c(=O)c3ccc(N4CCCN(C)CC4)nc3n3c2sc2ccccc23)cn1 [CX-5461] + O=C(CCCCCCC(=O)Nc1ccccc1)NO [Vorinostat] (partner 1 µM)
Summary of the method: as §1

IMD-0354 + Olaparib = compound: O=C(Nc1cc(C(F)(F)F)cc(C(F)(F)F)c1)c1cc(Cl)ccc1O [IMD-0354] + O=C(c1cc(Cc2n[nH]c(=O)c3ccccc23)ccc1F)N1CCN(C(=O)C2CC2)CC1 [Olaparib] (partner 8 µM)
Summary of the method: as §1

Cell Line	relative viability (IMD-0354 + Luminespib; first compound 0.04 µM)	relative viability (IMD-0354 + Luminespib; first compound 0.1265 µM)	relative viability (IMD-0354 + Luminespib; first compound 0.4 µM)	relative viability (IMD-0354 + Luminespib; first compound 1.265 µM)	relative viability (IMD-0354 + Luminespib; first compound 4 µM)	relative viability (IMD-0354 + Tozasertib; first compound 0.04 µM)	relative viability (IMD-0354 + Tozasertib; first compound 0.1265 µM)	relative viability (IMD-0354 + Tozasertib; first compound 0.4 µM)	relative viability (IMD-0354 + Tozasertib; first compound 1.265 µM)	relative viability (IMD-0354 + Tozasertib; first compound 4 µM)	relative viability (CX-5461 + Vorinostat; first compound 0.01 µM)	relative viability (CX-5461 + Vorinostat; first compound 0.03162 µM)	relative viability (CX-5461 + Vorinostat; first compound 0.1 µM)	relative viability (CX-5461 + Vorinostat; first compound 0.3162 µM)	relative viability (CX-5461 + Vorinostat; first compound 1 µM)	relative viability (IMD-0354 + Olaparib; first compound 0.04 µM)	relative viability (IMD-0354 + Olaparib; first compound 0.1265 µM)	relative viability (IMD-0354 + Olaparib; first compound 0.4 µM)	relative viability (IMD-0354 + Olaparib; first compound 1.265 µM)	relative viability (IMD-0354 + Olaparib; first compound 4 µM)
NCI-H520	0.199	0.21	0.198	0.243	0.225	0.441	0.379	0.385	0.347	0.229	0.734	0.681	0.661	0.642	0.291	0.325	0.317	0.318	0.146	0.189
NCI-H460	0.0305	0.0328	0.0332	0.0223	0.0144	0.485	0.35	0.443	0.127	0.0269	0.721	0.909	0.216	0.48	0.0282	0.395	0.322	0.363	0.0469	0.0473
EKVX	1.05	0.672	0.783	0.767	0.117	0.382	0.397	0.269	0.456	0.149	0.738	0.815	0.758	0.726	0.784	0.964	0.755	–	0.634	0.204
SK-MES-1	0.904	1.01	0.437	0.169	0.233	1.14	0.873	0.543	0.287	0.215	1.22	1.22	1.13	1.19	0.654	0.894	0.643	0.312	0.19	0.226
EPLC-272H	0.51	0.322	0.409	0.22	0.131	0.256	0.241	0.16	0.24	0.113	0.47	0.362	0.362	0.48	0.458	1.16	0.495	0.599	0.106	0.38
NCI-H1793	0.149	0.159	0.152	0.143	0.175	0.405	0.321	0.233	0.15	0.191	0.894	0.927	0.786	0.367	0.645	0.856	0.797	0.399	0.213	0.251
NCI-H2126	0.866	0.867	0.55	0.27	0.213	0.915	0.942	0.573	0.348	0.294	0.725	0.861	0.79	0.522	0.881	1	0.908	0.68	0.512	0.364
LXF-289	0.796	0.66	0.564	0.508	0.192	0.229	0.235	0.154	0.0929	0.053	0.803	0.744	0.635	–	0.544	0.959	0.945	0.783	0.418	0.0925
NCI-H2009	1.09	0.923	0.675	0.148	0.159	0.877	0.752	0.51	0.24	0.139	0.755	0.716	0.652	0.661	0.332	0.625	0.694	0.591	0.366	0.115
SW 900	0.187	0.162	0.178	0.143	0.161	0.635	0.531	0.409	0.273	0.225	0.446	0.586	–	0.637	0.359	0.928	0.948	0.66	0.212	0.258
NCI-H2405	0.752	0.669	0.671	0.358	0.288	0.742	0.727	0.732	0.346	0.322	1.04	0.872	0.994	0.939	0.669	0.905	0.866	0.491	0.258	0.258
NCI-H1755	0.321	0.515	0.312	0.456	0.289	0.566	0.627	0.435	0.407	0.294	0.806	0.793	0.735	0.722	0.667	0.782	0.907	0.707	0.585	0.23
LOU-NH91	0.348	0.334	0.32	0.176	0.213	0.774	0.626	0.523	0.184	0.174	0.985	0.957	0.87	0.49	0.697	0.938	0.447	0.285	0.147	0.282
NCI-H3122	0.0711	0.103	0.0803	0.0918	0.0652	0.468	0.421	0.248	0.139	0.119	1.02	1.02	1.12	1.07	0.967	0.461	0.633	0.417	0.509	0.137
HCC-827	0.686	0.589	0.589	0.235	0.129	0.437	0.458	0.353	0.353	0.182	0.854	0.887	0.85	0.567	0.923	0.55	0.614	0.482	0.372	0.21
SW 1573	0.189	0.209	0.218	0.138	0.127	0.182	0.16	0.175	0.0971	0.0737	0.726	0.668	0.116	0.15	0.214	0.537	0.467	0.264	0.0858	0.0862
